Source: patent publication US8222487B2, “Application of ERF genes from Bupleurum kaoi” (National Tsing Hua University, priority 2009, dated 2012)

Tested on: B. kaoi adventitious roots
Assay: Fresh weight and appearance of adventitious roots after MeJA
Type: cell-based, Bupleurum kaoi
Experimental: FIG. 1 Effect of MeJA on fresh weight and appearance of B. kaoi adventitious roots. (A) Four weeks after subculture, the nutrient medium of B. kaoi adventitious roots was refreshed. MeJA (500 μM) was applied 2 weeks after refreshment. The fresh weights of adventitious roots were measured at 13 time points after MeJA treatment as indicated. (B) Adventitious roots treated with MeJA began to show dark brownish pigmentation after 2 weeks. Each panel is a representative of the adventitious roots at the indicated time points. The left and right flasks for each sub-panel indicate the control and MeJA treated adventitious roots, respectively. (C) H2O2 level and (D) MDA level were measured at the indicated time. Vertical bars indicate S.E. of the mean for n=3.
Adventitious root cultures were induced from the roots of germ-free seedlings of B. kaoi and were subcultured every 6 weeks by adding 0.2 g roots to a 125 ml flask containing 50 ml of B5 liquid medium supplemented with 2 mg 1^−1 NAA. Cultures were shaken using a rotary shaker at 100 rpm at 25° C. in the dark. To quantify the effect of MeJA on saikosaponin level, adventitious roots were treated with 500 and 1000 μM MeJA 2 weeks after subculture. Total saikosaponin was measured 2 weeks after MeJA treatment. […]

Structure (SMILES): CC/C=C\CC1C(=O)CCC1CC(=O)OC (centres unmarked) [MeJA, Methyl jasmonate]
- Appearance of roots (pigmentation) (500 μM MeJA, 2 weeks later, compared to control): marked pigmentation
- Growth of adventitious roots (fresh weight) (8 days after 500 μM MeJA treatment): retarded
